Values quoted from earlier work as cited in patent publication US20120034285A1, “Mosquito Net with Dinotefuran and PBO for Killing Mosquitoes, Especially Mosquitoes with Pyrethroid Resistance” (priority 2009, published 2012).

Key:
Anopheles gambiae = conditions: in vivo
Aedes aegypti = conditions: in vivo
Culex quinquefasciatus = conditions: in vivo
[1] = tested on: mosquito strain VKPR (also termed VKPER) of the An. gambiae species; conditions: strain with mutation for knockdown-resistance against pyrethroids
mosquitoes = conditions: in contrast to pyrethroids; also mentioned in JP 10 139604
cockroaches = conditions: PBO added as an oxidase inhibitor; Dinotefuran injected into the stomach

## CN/C(=N/CC1CCOC1)N[N+](=O)[O-] (stereo not drawn) [Dinotefuran]
Anopheles gambiae
  lethal effect: lethal effect
Aedes aegypti
  lethal effect: lethal effect
Culex quinquefasciatus
  lethal effect: lethal effect
[1]
  lethal effect: lethal effect
mosquitoes
  mosquito repellent effect: does not have a mosquito repellent effect
cockroaches
  toxicity on cockroaches: increased toxicity
